Consider three compounds from US12522596B2, “Compounds as GLP-1R agonists” (Terns Pharmaceuticals, Inc., priority 2021, dated 2026).

SMILES strings stand for the structures. “Also recorded” adds a separate entry of the source.

The test system of data set [1] is C57BL/6 mice expressing human GLP-1R (hGLP-1R). In words: Food intake in humanized mouse model. In kind it is in vivo. The following applies: hGLP-1R mice, relative to vehicle control; Compound 2 10, 30, 60 mg/kg PO. The procedure:
The ability of compounds disclosed herein to modify the food intake of C57BL/6 mice expressing human GLP-1R (hGLP-1R) was evaluated.
The dose protocol used in this study is described in Table 6.
Acclimation and grouping: Mice were acclimated for QD PO dosing with vehicle for 4 days, baseline body weight and food intake were measured for 4 consecutive days. Animals were allocated into 8 groups based on body weight and 3rd day's food intake.
Dose body weight and food intake measurement: All animals were placed in clean cages with sawdust bedding and fasted overnight, mice were dosed with vehicle or test compound in the morning. All group's food was added 15 minutes post dosing, food remaining was recorded at 2-, 4-, 6-, 8-, 10- and 24-h post dosing. (FIG. 4) Body weight was determined on a daily basis during the study.
Data processing and analysis: Manual data were transferred into an excel spreadsheet. All values were expressed as mean±S.E.M. The significances of the differences among groups and within groups are evaluated by one-way or two-way ANOVA using Graph Pad statistic software. A p-value of less than 0.05 was considered statistically significant.

Data set [2] is described as follows: Rat pharmacokinetics, intravenous dosing. The conditions noted are these: for AUC(0-t) / Cmax / clearance / half-life: male, Sprague-Dawley, rat plasma, 1 mg/kg IV (0.5 mg/mL). It is filed as in vivo, Sprague-Dawley rats. The method, then: Intravenous dosing: Compounds were formulated at 0.5 mg/mL in a solution comprising 5% polyethylene glycol 400 and 95% (12% (w/v) sulfobutyl-β-cyclodextrin in water) (v/v). Formulated compounds were sterile filtered through a 0.22 micron filter before dosing. Compounds were administered to male, 7-11-week-old Sprague-Dawley rats by jugular vein cannula infusion over 30 minutes at a dose of 1 mg/kg.
Sample collection: Blood collections of about 0.2 mL per time point were performed from jugular vein or other suitable site of each animal, into pre-chilled commercial EDTA-K2 tubes and placed on wet ice until centrifugation. Blood samples were processed for plasma by centrifugation at approximately 4° C., 3,200 g for 10 min. Plasma was collected and transferred into pre-labeled 96 well plate or polypropylene tubes, quick frozen over dry ice and kept at −60° C. or lower until LC-MS/MS analysis.
Data analysis: Plasma concentration versus time data was plotted in graph and analyzed by non-compartmental approaches using the Phoenix WinNonlin 6.3 software program. Related PK parameters were calculated according to dosing route, e.g., CL, Vdss and C0 for intravenous administration, Cmax, Tmax or % F for extravascular administration, and T1/2, AUC(0-t), AUC(0-inf), MRT(0-t), MRT(0-inf) for all routes.

A further data set relates to human hepatocytes. Nature of the data set: Metabolic stability in human hepatocytes. In kind it is in vitro ADME. The following applies: human. An outline of the steps: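 Compounds at 1 μM (0.1% DMSO) were incubated with 1×10^6 cells/mL cryopreserved rat or human hepatocytes in DMEM at 37°C for 0–240 min. Parent remaining was measured by LC-MS/MS; k from semi-log decline gave t1/2 and CLint, with CLhep predicted by the well-stirred model.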

The subject of data set [3] is mice expressing wildtype (WT) mouse GLP-1R. In words: Glucose tolerance in mice expressing wildtype mouse GLP-1R. The following applies: mice expressing WT mouse GLP-1R. It is filed as in vivo. The method, then: The glucose tolerance of mice expressing wildtype (WT) mouse GLP-1R was also evaluated after the administration of compound 2 using methods analogous to those described above. The glucose tolerance of mice expressing WT mouse GLP-1R was not affected by Compound 2, whereas the glucose tolerance of mice expressing human GLP-1R was improved by Compound 2 (FIGS. 9 and 10).

Where [4] appears, read: rat, intravenous administration.

In the case of `N#Cc1ccc(COc2cccc(C3CCN(Cc4nc5ccc(C(=O)O)cc5n4C[C@@H]4CCO4)CC3)n2)c(F)c1` [Reference Compound A, reference compound], the food intake entry in data set [1] was “reduction in food intake”. Further, in data set [2], the exposure AUC(0-t) is 325 ± 16.8 ng·h/mL, the concentration peaked (Cmax) at 486 ± 37.9 ng/mL, the clearance worked out at 51.2 ± 2.59 mL/min/kg and the half-life was 0.613 ± 0.344 h.

As to `N#Cc1ccc(COc2cccc(N3CCN(Cc4nc5ccc(C(=O)O)cc5n4Cc4cncs4)CC3)n2)c(F)c1` [Compound 30], in the data set on human hepatocytes, the “CLint relative to reference” value is “no significant difference” and the “half-life relative to standard” value is given as “no significant difference”.

Regarding `N#Cc1ccc(COc2cccc(C3CCN(Cc4nc5ccc(C(=O)O)cc5n4Cc4cncs4)CC3)n2)c(F)c1` [Compound 2], in data set [1], the food intake entry is on record as “reduction in food intake; also recorded: significantly suppressed food intake”. In data set [2], the exposure AUC(0-t) was 427 ± 27.7 ng·h/mL, the peak concentration (Cmax) amounted to 596 ± 42.3 ng/mL, the clearance worked out at 38.8 ± 2.55 mL/min/kg and the half-life was 1.57 ± 0.583 h. Also, in data set [2] (setting [4]), the “longer t1/2 as compared with Reference Compound A” value is approximately 2 fold and the “lower clearance as compared with Reference Compound A” value was 30%. Besides, in data set [3], the glucose tolerance entry is “not affected”.

The term AUC(0-t) denotes exposure summed from dosing to a finite time, without extrapolation to infinity. A high value points to high exposure. Usually Cmax stands for the maximum level reached in the sampled fluid or tissue. A word on the clearance: it is the volume of plasma or blood freed of the substance per unit of time. Usually half-life stands for the time in which the quantity being followed falls by half. A lower half-life goes with fast loss.
